In ChEMBL document CHEMBL3751761, “Analogues of boswellic acids as inhibitors of pro-inflammatory cytokines TNF-α and IL-6” (Bioorg Med Chem Lett, 2016):

Legend:
PBMC [1] = test: Anti-inflammatory activity in human PBMC assessed as inhibition of LPS-induced TNFalpha expression at 10 uM after 5 hrs; assay type: functional
PBMC [2] = test: Anti-inflammatory activity in human PBMC assessed as inhibition of LPS-induced IL-6 expression at 10 uM after 5 hrs; assay type: functional
[3] = Cytotoxicity against human FR2 cells assessed as cell viability at 10 uM after 48 hrs by MTT assay; assay type: cell-based; details: read-out: Activity
Mus musculus [4] = test: Anti-inflammatory activity in BALB/c mouse assessed as inhibition of LPS-induced TNFalpha expression at 10 mg/kg, po pre-treated for 1 hr followed by LPS administration measured 2.5 hrs after LPS challenge by ELISA; assay type: functional
Mus musculus [5] = test: Anti-inflammatory activity in BALB/c mouse assessed as inhibition of LPS-induced IL-6 expression at 10 mg/kg, po pre-treated for 1 hr followed by LPS administration measured 2.5 hrs after LPS challenge by ELISA; assay type: functional

| Structure (SMILES) | inhibition at 10 µM (PBMC [1]) | inhibition at 10 µM (PBMC [2]) | viability at 48 h, 10 µM [3] | inhibition in vivo at 10 mg/kg (Mus musculus [4]) | inhibition in vivo at 10 mg/kg (Mus musculus [5]) |
| --- | --- | --- | --- | --- | --- |
| CCC(=O)O[C@@H]1CC[C@@]2(C)[C@@H](CC[C@]3(C)[C@@H]2CC=C2[C@@H]4[C@@H](C)[C@H](C)CC[C@]4(C)CC[C@]23C)[C@@]1(C)C(=O)O | 40% | 43.5% | – | – | – |
| CCCC(=O)O[C@@H]1CC[C@@]2(C)[C@@H](CC[C@]3(C)[C@@H]2CC=C2[C@@H]4[C@@H](C)[C@H](C)CC[C@]4(C)CC[C@]23C)[C@@]1(C)C(=O)O | 41.4% | 34.8% | – | – | – |
| CCC(=O)O[C@@H]1CC[C@@]2(C)[C@@H](CC[C@]3(C)[C@@H]2C(=O)C=C2[C@@H]4[C@@H](C)[C@H](C)CC[C@]4(C)CC[C@]23C)[C@@]1(C)C(=O)O | 38.9% | 36.6% | – | – | – |
| CCCC(=O)O[C@@H]1CC[C@@]2(C)[C@@H](CC[C@]3(C)[C@@H]2C(=O)C=C2[C@@H]4[C@@H](C)[C@H](C)CC[C@]4(C)CC[C@]23C)[C@@]1(C)C(=O)O | 34.1% | 22.5% | – | – | – |
| CCCC(=O)O[C@H]1CC[C@@]2(C)[C@@H](CC[C@]3(C)[C@@H]2CC=C2[C@@H]4[C@@H](C)[C@H](C)CC[C@]4(C)CC[C@]23C)[C@@]1(C)C(=O)O | 68.9% | 39.5% | 83% | 58.7% | 51.6% |
| CCCC(=O)O[C@H]1CC[C@@]2(C)[C@@H](CC[C@]3(C)[C@@H]2C(=O)C=C2[C@@H]4[C@@H](C)[C@H](C)CC[C@]4(C)CC[C@]23C)[C@@]1(C)C(=O)O | 44.2% | 52.3% | 80% | 37.8% | 48.5% |
| C[C@H]1[C@H](C)CC[C@]2(C)CC[C@]3(C)C(=CC(=O)[C@@H]4[C@@]5(C)CC[C@H](O)[C@](C)(C(=O)O)[C@@H]5CC[C@]43C)[C@H]12 | 53.5% | 49.6% | 100% | 71.3% | 28.9% |
| CC(=O)O[C@H]1CC[C@@]2(C)[C@@H](CC[C@]3(C)[C@@H]2CC=C2[C@@H]4[C@@H](C)[C@H](C)CC[C@]4(C)CC[C@]23C)[C@@]1(C)C(=O)O | 57.9% | 51.1% | 99% | – | 19.5% |
| CC(=O)O[C@H]1CC[C@@]2(C)[C@@H](CC[C@]3(C)[C@@H]2C(=O)C=C2[C@@H]4[C@@H](C)[C@H](C)CC[C@]4(C)CC[C@]23C)[C@@]1(C)C(=O)O | 39.6% | 44.7% | – | – | – |
| CC(=O)O[C@@H]1CC[C@@]2(C)[C@@H](CC[C@]3(C)[C@@H]2CC=C2[C@@H]4[C@@H](C)[C@H](C)CC[C@]4(C)CC[C@]23C)[C@@]1(C)C(=O)O | 43.8% | – | – | – | – |
| CC(=O)O[C@@H]1CC[C@@]2(C)[C@@H](CC[C@]3(C)[C@@H]2CC=C2[C@@H]4[C@@H](C)[C@H](C)CC[C@]4(C)CC[C@]23C)[C@@]1(C)N=C=O | 40.6% | – | – | – | – |
| CC(=O)O[C@@H]1CC[C@]2(C)[C@H]3CC=C4[C@@H]5[C@@H](C)[C@H](C)CC[C@]5(C)CC[C@@]4(C)[C@]3(C)CC[C@H]2[C@@]1(C)N | 68.3% | 63.3% | 100% | 39.5% | 41.4% |
| CC(=O)O[C@@H]1CC[C@]2(C)[C@H]3C(=O)C=C4[C@@H]5[C@@H](C)[C@H](C)CC[C@]5(C)CC[C@@]4(C)[C@]3(C)CC[C@H]2[C@@]1(C)N | 78.9% | 58.4% | 97% | 53.3% | 39.1% |
| CCCCCC(=O)O[C@H]1CC[C@@]2(C)[C@@H](CC[C@]3(C)[C@@H]2C(=O)C=C2[C@@H]4[C@@H](C)[C@H](C)CC[C@]4(C)CC[C@]23C)[C@@]1(C)C(=O)O | 44.7% | 64% | 85% | 30.7% | 44.1% |
| CCCCCC(=O)O[C@H]1CC[C@@]2(C)[C@@H](CC[C@]3(C)[C@@H]2CC=C2[C@@H]4[C@@H](C)[C@H](C)CC[C@]4(C)CC[C@]23C)[C@@]1(C)C(=O)O | 42.5% | 53.4% | 97% | 59.3% | 41.6% |
| CCCCCC(=O)O[C@@H]1CC[C@@]2(C)[C@@H](CC[C@]3(C)[C@@H]2CC=C2[C@@H]4[C@@H](C)[C@H](C)CC[C@]4(C)CC[C@]23C)[C@@]1(C)C(=O)O | 72.3% | 50.5% | 89% | 42.5% | 57.5% |
| CCCCCC(=O)O[C@@H]1CC[C@@]2(C)[C@@H](CC[C@]3(C)[C@@H]2C(=O)C=C2[C@@H]4[C@@H](C)[C@H](C)CC[C@]4(C)CC[C@]23C)[C@@]1(C)C(=O)O | 18.3% | 13.8% | – | – | – |
| C[C@H]1[C@H](C)CC[C@]2(C)CC[C@]3(C)C(=CC[C@@H]4[C@@]5(C)CC[C@H](O)[C@](C)(C(=O)O)[C@@H]5CC[C@]43C)[C@H]12 | 41.4% | 42.3% | – | – | – |
| CC(=O)O[C@@H]1CC[C@@]2(C)[C@@H](CC[C@]3(C)[C@@H]2C(=O)C=C2[C@@H]4[C@@H](C)[C@H](C)CC[C@]4(C)CC[C@]23C)[C@@]1(C)N=C=O | 40.6% | 69.8% | 91% | 26.4% | 40.2% |
| C[C@H]1[C@H](C)CC[C@]2(C)CC[C@]3(C)C(=CC(=O)[C@@H]4[C@@]5(C)CC[C@@H](O)[C@](C)(C(=O)O)[C@@H]5CC[C@]43C)[C@H]12 [11-KETO BOSWELLIC ACID] | 56.3% | 59.6% | 86% | 58.7% | 61.6% |
| CC(=O)O[C@@H]1CC[C@@]2(C)[C@@H](CC[C@]3(C)[C@@H]2C(=O)C=C2[C@@H]4[C@@H](C)[C@H](C)CC[C@]4(C)CC[C@]23C)[C@@]1(C)C(=O)O [AKBA] | 55% | 53.9% | 100% | 70.7% | 54.3% |
| C[C@H]1[C@H](C)CC[C@]2(C)CC[C@]3(C)C(=CC[C@@H]4[C@@]5(C)CC[C@@H](O)[C@](C)(C(=O)O)[C@@H]5CC[C@]43C)[C@H]12 [BOSWELLIC ACID] | 44.5% | 48.6% | 73% | 50.8% | 53% |
| COc1ccc(C2CNC(=O)C2)cc1OC1CCCC1 (centres undefined) [ROLIPRAM] | 34.6% | 26.2% | – | 48.1% | 36.9% |
